Structures can show the parent of a compound that is named as a salt.
Key:
[1] = molecular target: S. aureus 133 translation; assay: S. aureus in vitro transcription-translation assay (firefly luciferase, S30 extract); type: biochemical; conditions: 50% inhibition of the translation of firefly luciferase
Description: In Vitro Transcription-Translation with S. aureus Extracts
Construction of an S. aureus Luciferase Reporter Plasmid
For the construction of a reporter plasmid which can be used in an in vitro transcription-translation assay from S. aureus the plasmid pBESTluc (Promega Corporation, USA) is used. The E. coli tac promoter present in this plasmid in front of the firefly luciferase is replaced by the capA1 promoter with appropriate Shine-Dalgarno sequence from S. aureus. The primers CAPFor 5′-[…] […] […]-3′ and CAPRev 5′-[…]-3′ are used for this. The primer CAPFor contains the capA1 promoter, the ribosome binding site and the 5′ region of the luciferase gene. After PCR using pBESTluc as template it is possible to isolate a PCR product which contains the firefly luciferase gene with the fused capA1 promoter. This is, after restriction with ClaI and HindIII, ligated into the vector pBESTluc which has likewise been digested with ClaI and HindIII. The resulting plasmid p1a is able to replicate in E. coli and be used as template in the S. aureus in vitro transcription-translation assay.
Preparation of S30 Extracts from S. aureus
Six liters of BHI medium are inoculated with a 250 ml overnight culture of an S. aureus strain and allowed to grow at 37° C. until the OD600 nm is 2-4. The cells are harvested by centrifugation and washed in 500 ml of cold buffer A (10 mM Tris acetate, pH 8.0, 14 mM magnesium acetate, 1 mM DTT, 1 M KCl). After renewed centrifugation, the cells are washed in 250 ml of cold buffer A with 50 mM KCl, and the resulting pellets are frozen at −20° C. for 60 min. The pellets are thawed on ice in 30 to 60 min and taken up in buffer B (10 mM Tris acetate, pH 8.0, 20 mM magnesium acetate, 1 mM DTT, 50 mM KCl) up to a total volume of 99 ml. 1.5 ml portions of lysostaphin (0.8 mg/ml) in buffer B are introduced into 3 precooled centrifuge cups and each is mixed with 33 ml of the cell suspension. The samples are incubated at 37° C., shaking occasionally, for 45 to 60 min, before 150 μl of a 0.5 M DTT solution are added. The lysed cells are centrifuged at 30 000×g and 4° C. for 30 min. The cell pellet is taken up in buffer B and then centrifuged again under the same conditions, and the collected supernatants are combined. The supernatants are centrifuged again under the same conditions, and 0.25 volumes of buffer C (670 mM Tris acetate, pH 8.0, 20 mM magnesium acetate, 7 mM Na3 phosphoenolpyruvate, 7 mM DTT, 5.5 mM ATP, 70 μM amino acids (complete from Promega), 75 μg of pyruvate kinase (Sigma, Germany))/ml are added to the upper ⅔ of the supernatant. The samples are incubated at 37° C. for 30 min. The supernatants are dialysed against 21 of dialysis buffer (10 mM Tris acetate, pH 8.0, 14 mM magnesium acetate, 1 mM DTT, 60 mM potassium acetate) in a dialysis tube with a 3500 Da cut-off with one buffer change at 4° C. overnight. The dialysate is concentrated to a protein concentration of about 10 mg/ml by covering the dialysis tube with cold PEG 8000 powder (Sigma, Germany) at 4° C. The S30 extracts can be stored in aliquots at −70° C.
Determination of the IC50 in the S. aureus In Vitro Transcription-Translation Assay
Inhibition of protein biosynthesis of the compounds can be shown in an in vitro transcription-translation assay. The assay is based on the cell-free transcription and translation of firefly luciferase using the reporter plasmid p1a as template and cell-free S30 extracts obtained from S. aureus. The activity of the resulting luciferase can be detected by luminescence measurement.
The amount of S30 extract or plasmid p1a respectively to be employed must be tested anew for each preparation in order to ensure an optimal concentration in the assay. 3 μl of the substance to be tested, dissolved in 5% DMSO, are introduced into an MTP. Then 10 μl of a suitably concentrated plasmid solution p1a are added. […]

S. aureus RN4220 = assay: Isolation of biphenomycin-resistant strain from S. aureus RN4220: resistance rate on biphenomycin B agar; type: cell-based; conditions: S. aureus RN4220 on agar plate containing 2 μg/ml biphenomycin B (10×MIC), 37° C. overnight
Method: Isolation of the Biphenomycin-Resistant S. aureus Strains RN4220Bi^R and T17
(§1) The S. aureus strain RN4220Bi^R is isolated in vitro. For this purpose, 100 μl portions of an S. aureus RN4220 cell suspension (about 1.2×10^8 cfu/ml) are plated out on an antibiotics-free agar plate (18.5 mM Na2HPO4, 5.7 mM KH2PO4, 9.3 mM NH4Cl, 2.8 mM MgSO4, 17.1 mM NaCl, 0.033 μg/ml thiamine hydrochloride, 1.2 μg/ml nicotinic acid, 0.003 μg/ml biotin, 1% glucose, 25 μg/ml of each proteinogenic amino acid with the addition of 0.4% BH broth and 1% agarose) and on an agar plate containing 2 μg/ml biphenomycin B (10×MIC), and incubated at 37° C. overnight. Whereas about 1×10^7 cells grow on the antibiotics-free plate, about 100 colonies grow on the antibiotics-containing plate, corresponding to a resistance rate of 1×10^−5. Some of the colonies grown on the antibiotics-containing plate are tested for the biphenomycin B MIC. One colony with an MIC of >50 μM is selected for further use, and the strain is referred to as RN4220Bi^R.

S. aureus RN4220Bi^R = assay: MIC on biphenomycin-resistant S. aureus RN4220Bi^R; type: cell-based; conditions: Staphylococcus aureus, read-out: MIC, selected colony (strain RN4220Bi^R)
Method: as §1

NC[C@H](O)C[C@@H]1NC(=O)[C@@H](N)Cc2cc(ccc2O)-c2ccc(O)c(c2)C[C@@H](C(=O)O)NC1=O [Example 20A, 14(S)-Amino-11(S)-(3-amino-2(R)-hydroxypropyl)-5,17-dihydroxy-10,13-dioxo-9,12-diazatricyclo[14.3.1.1^2,6]henicosa-1(19),2,4,6(21),16(20),17-hexaene-8(S)-carboxylic acid dihydrochloride, reference compound]
IC50 [1]: 1.5 µM
resistance rate (S. aureus RN4220): 1×10^−5
MIC (S. aureus RN4220Bi^R): > 50 µM

Source: patent US7446102B2, “Antibacterial amide macrocycles IV” (priority 2004, dated 2008)
